IC50 data for 3 compounds are collected here from patent US20090181972A1, “Novel Inhibitors of Cysteine Proteases, the Pharmaceutical Compositions Thereof and their Therapeutic Applications” (priority 2005, published 2009).

This test deals with T1, SENP1 (Homo sapiens, UniProt Q9P0U3).
T1 construct: made in house; host or cells: E. coli BL21
T1 sequence (Q9P0U3 1-644): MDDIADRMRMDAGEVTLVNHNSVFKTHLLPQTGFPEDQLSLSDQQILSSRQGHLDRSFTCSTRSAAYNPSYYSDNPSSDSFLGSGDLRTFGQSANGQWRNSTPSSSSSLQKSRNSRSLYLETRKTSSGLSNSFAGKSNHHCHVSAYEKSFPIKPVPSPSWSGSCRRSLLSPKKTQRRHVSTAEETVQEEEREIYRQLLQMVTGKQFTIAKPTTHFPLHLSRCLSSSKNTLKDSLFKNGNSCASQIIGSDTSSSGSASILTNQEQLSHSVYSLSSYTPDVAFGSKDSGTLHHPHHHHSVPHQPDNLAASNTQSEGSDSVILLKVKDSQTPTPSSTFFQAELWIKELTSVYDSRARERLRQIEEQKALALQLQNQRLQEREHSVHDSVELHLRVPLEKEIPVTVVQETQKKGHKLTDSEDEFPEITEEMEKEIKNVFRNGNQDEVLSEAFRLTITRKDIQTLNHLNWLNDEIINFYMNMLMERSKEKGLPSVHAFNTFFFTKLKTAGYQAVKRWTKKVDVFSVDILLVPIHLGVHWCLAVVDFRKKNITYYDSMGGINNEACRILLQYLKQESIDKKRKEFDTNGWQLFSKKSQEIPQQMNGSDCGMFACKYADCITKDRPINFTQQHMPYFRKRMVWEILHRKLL
The experiment in a line: SENP1 activity assay. To be noted: MBP-SENP1 1.8 nM, 200 nM SUMO-AMC; pre-incubated 30 minutes at 25° C., 60 minutes at 37° C.; sigmoidal fit. The test is classed as biochemical. The method, then:
The cDNA encoding SENP1 was obtained by PCR amplification from placenta mRNA. SENP1 cDNA was subcloned by PCR into a bacterial expression vector (pMAL-C2X; New England BioLabs, Inc). The sequence was ascertained by sequencing of the entire open reading frame. pMAL-C2-SENP1 was transformed into BL21 cells and grown in LB-ampicillin medium supplemented with glucose (2 g.l^−1). Fusion protein expression was induced by IPTG (0.5 mM). Bacterial cell lysates were harvested and lyzed in lysis buffer (Tris HCl 20 mM pH 7.4; 1 mM EDTA; 200 mM NaCl; 0.5% Triton X-100; 10 % glycerol; Protease Inhibitor Cocktail) followed by sonication. Proteins were affinity purified on amylose affinity resin (New England BioLabs, Inc). Bound materials were extensively washed in wash buffer (20 mM Tris HCl pH 7.4; 200 mM NaCl; 1 mM EDTA; 0.5% Triton X-100; 10% glycerol) and eluted from the resin in 10 mM maltose-containing wash buffer. Proteins were dialyzed in dialysis buffer (Tris HCl pH 7.6 20 mM; NaCl 200 mM; DTT 1 mM; EDTA 1 mM; 10% Glycerol). Proteins purifications were analyzed on 4-12% NuPAGE (Invitrogen).
MBP-SENP1 was diluted in SENP1 buffer (50 mM Tris HCl; 0.5 mM EDTA; 5 mM DTT; 0.01 % Triton X-100; Bovine Serum Albumin 0.05 mg.ml^−1 pH 7.6). Compounds stocks (100 mM) were stored at −20° C. in DMSO. Compounds were tested at the following final concentrations: 100 μM; 33.3 μM; 11.1 μM; 3.7 μM; 1.23 μM; 412 nM; 137 nM; 45.7 nM; 15.2 nM; 5 nM.
Reactions were performed as duplicates in Black LJL 96 well plates (HE microplates; Molecular Devices; 20 μl final reaction volume). The substrate concentration for SENP1 was 200 nM SUMO-AMC (Chem. Biol., 2003, 10, p. 837-846) (Boston Biochem). The concentration of the enzyme (SENP1) in specificity assays was 1.8 nM. The concentrations were determined in order to perform specificity assays under initial velocities at fixed substrate concentration. Compounds were pre-incubated with enzymes for 30 minutes at 25° C. Reactions were initiated by addition of substrate to the plates containing the enzymes (+/− compounds) diluted in assay buffer. Reactions were incubated for 60 minutes at 37° C. Reactions were stopped by adding acetic acid (100 mM final). Readings were performed on a Pherastar Fluorescent Reader (BMG). λ Emission 380 nm; λ Excitation=460 nm. Data (mean values +/− standard deviation) were analyzed as % of control (no compound) and plotted as percentage versus the Log of the compound concentration using GraphPad (Prism). Data were fitted to a sigmoidal model (variable slope).
In general, IC50 refers to the concentration at which inhibition is half-maximal. A low value points to greater potency. For the compound `CCc1nnc2nc3c(nn12)C(=O)c1cc(OC)c(OC)cc1-3` [Example 5b/A, 1-Ethyl-6,7-dimethoxy-2,3,4,10,10a-pentaaza-cyclopenta[b]fluoren-9-one], it took 35.7 µM to reach half-maximal inhibition (IC50).
As to “6-(7)-Chloro-1-methyl-2,3,4,10,10a-pentaaza-cyclopenta[b]fluoren-9-one [Example 3/A]”, the concentration for half-maximal inhibition (IC50) is greater than 100 µM.
Next, `CCc1nnc2nc3c(nn12)-c1cc(OC)c(OC)cc1C3=O` [Example 5b/B, 3-Ethyl-6,7-dimethoxy-1,2,3a,4,10-pentaaza-cyclopenta[b]fluoren-9-one]: 1.28 µM.
